Data on 5 compounds can be found in publication PMC6419574 (Bioorganic & Medicinal Chemistry Letters, 2019).

Assay [1] deals with T1, fascin (Homo sapiens, UniProt Q16658). It counts as biochemical.
The target in assay [2] is T1, fascin. The conditions noted are these: for Ligand efficiency: from SPR Kd.
The target in assay [3] is T1, fascin. The experiment in a line: Isothermal titration calorimetry. It counts as binding. To be noted: 150 µM compound in syringe, 15 µM fascin in cell, Fig. 3B.
The target of assay [4] is T1, fascin. The experiment in a line: biochemical. The conditions noted are these: SPR Kd.

Consider `CC(=O)N(C)c1ccc(Cl)cc1Cl` [Compound 1, N-(2,4-dichlorophenyl)-N-methylacetamide], for which, on fascin [1], the “inhibition of fascin in the bundling assay (in words)” value (“inhibition of fascin” for short) was “Unlike compound 1, both 2 and 3 inhibit fascin”. At fascin [2], the Ligand efficiency stood at 0.43. For the compound `O=c1c2cnn(C3CCS(=O)(=O)C3)c2ncn1Cc1ccc(Cl)c(Cl)c1` (stereo not drawn) [Compound 2, 5-(3,4-dichlorobenzyl)-1-(1,1-dioxidotetrahydrothiophen-3-yl)-1,5-dihydro-4H-pyrazolo[3,4-d]pyrimidin-4-one, reference compound], the “inhibition of fascin” value against fascin [1] was “inhibit fascin”. Also, the “improvement of fascin affinity over truncated compound 25” value at fascin [2] amounted to 23 fold. Turning to `Cn1cc(NC(=O)c2cn(Cc3ccccc3)c(=O)c3ccccc23)cn1` [Compound 3, 2-benzyl-N-(1-methylpyrazol-4-yl)-1-oxo-isoquinoline-4-carboxamide], the “inhibition of fascin” value against fascin [1] is recorded as “inhibit fascin”.

Consider `Cn1cc(NC(=O)c2cn(Cc3ccc(Cl)cc3)c(=O)c3ccccc23)cn1` [Compound 5, 2-(4-chlorobenzyl)-N-(1-methyl-1H-pyrazol-4-yl)-1-oxo-1,2-dihydroisoquinoline-4-carboxamide], for which the “increase in binding affinity compared to 3” value at fascin [2] (SPR Kd ratio vs compound 3) is reported as “≈ 14 fold”. For `O=C(Nc1ccncc1)c1cn(Cc2ccc(Cl)c(Cl)c2)c(=O)c2cnn(C3CCNCC3)c12` [Compound 28, 5-(3,4-dichlorobenzyl)-4-oxo-1-(piperidin-4-yl)-N-(pyridin-4-yl)-4,5-dihydro-1H-pyrazolo[4,3-c]pyridine-7-carboxamide], the Ligand efficiency at fascin [2] was 0.29. The “ITC stoichiometry N” value on fascin [3] was 1.05 ± 0.01. The same compound returned a Kd at fascin [4] of 85 ± 0.02 nM.

The term Kd denotes a measure of binding affinity in units of concentration. A high value points to a looser complex.
